This is an account of results in ChEMBL document CHEMBL1141622, “Carbonic anhydrase inhibitors: interactions of phenols with the 12 catalytically active mammalian isoforms (CA I-XIV)” (Bioorg Med Chem Lett, 2008).

SMILES strings stand for the structures.

The target of assay [1] is Carbonic anhydrase 13 (Mus musculus) (UniProt Q9D6N1). As to the kind of experiment: Inhibition of mouse recombinant full length carbonic hydrase 13 by stopped-flow assay.
In assay [2] the target is Carbonic anhydrase 1 (Homo sapiens) (UniProt P00915).
Sequence of Carbonic anhydrase 1 (Homo sapiens) (P00915 2-261 limits assumed): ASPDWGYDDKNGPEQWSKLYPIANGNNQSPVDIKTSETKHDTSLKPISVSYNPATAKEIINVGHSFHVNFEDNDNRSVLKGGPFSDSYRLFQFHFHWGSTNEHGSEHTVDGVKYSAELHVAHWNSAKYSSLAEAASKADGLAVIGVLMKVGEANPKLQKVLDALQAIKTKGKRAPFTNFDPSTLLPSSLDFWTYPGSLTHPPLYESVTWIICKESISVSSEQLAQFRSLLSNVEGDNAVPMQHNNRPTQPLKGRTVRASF
Description: Inhibition of human recombinant full length carbonic hydrase 1 by stopped-flow assay
Assay [3] deals with Carbonic anhydrase 2 (Homo sapiens) (UniProt P00918).
Description: Inhibition of human recombinant full length carbonic hydrase 2 by stopped-flow assay
Assay [4] deals with Carbonic anhydrase 3 (Homo sapiens) (UniProt P07451).
Sequence of Carbonic anhydrase 3 (Homo sapiens) (P07451 whole entry): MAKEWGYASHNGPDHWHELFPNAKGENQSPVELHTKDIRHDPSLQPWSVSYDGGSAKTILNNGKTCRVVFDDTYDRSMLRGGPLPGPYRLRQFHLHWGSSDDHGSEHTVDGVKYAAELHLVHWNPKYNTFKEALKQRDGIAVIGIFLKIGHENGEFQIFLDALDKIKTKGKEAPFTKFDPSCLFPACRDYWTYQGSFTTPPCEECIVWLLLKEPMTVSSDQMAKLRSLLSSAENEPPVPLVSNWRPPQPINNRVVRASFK
Description: Inhibition of human recombinant full length carbonic hydrase 3 by stopped-flow assay
Assay [5] has as its target Carbonic anhydrase 4 (Homo sapiens) (UniProt P22748).
Description: Inhibition of human recombinant full length carbonic hydrase 4 by stopped-flow assay
For assay [6], the target named is Carbonic anhydrase 5A, mitochondrial (Homo sapiens) (UniProt P35218).
Sequence of Carbonic anhydrase 5A, mitochondrial (Homo sapiens) (P35218 whole entry): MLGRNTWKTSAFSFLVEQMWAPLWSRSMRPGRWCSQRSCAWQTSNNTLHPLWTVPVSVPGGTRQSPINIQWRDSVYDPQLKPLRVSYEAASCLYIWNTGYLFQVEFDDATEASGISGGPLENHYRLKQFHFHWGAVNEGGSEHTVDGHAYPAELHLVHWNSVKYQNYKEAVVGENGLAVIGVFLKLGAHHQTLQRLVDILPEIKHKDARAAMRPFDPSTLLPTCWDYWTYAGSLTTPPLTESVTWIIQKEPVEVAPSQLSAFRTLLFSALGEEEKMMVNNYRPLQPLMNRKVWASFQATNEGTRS
Description: Inhibition of human recombinant full length carbonic hydrase 5A by stopped-flow assay
In assay [7] the target is Carbonic anhydrase 5B, mitochondrial (Homo sapiens) (UniProt Q9Y2D0).
Sequence of Carbonic anhydrase 5B, mitochondrial (Homo sapiens) (Q9Y2D0 whole entry): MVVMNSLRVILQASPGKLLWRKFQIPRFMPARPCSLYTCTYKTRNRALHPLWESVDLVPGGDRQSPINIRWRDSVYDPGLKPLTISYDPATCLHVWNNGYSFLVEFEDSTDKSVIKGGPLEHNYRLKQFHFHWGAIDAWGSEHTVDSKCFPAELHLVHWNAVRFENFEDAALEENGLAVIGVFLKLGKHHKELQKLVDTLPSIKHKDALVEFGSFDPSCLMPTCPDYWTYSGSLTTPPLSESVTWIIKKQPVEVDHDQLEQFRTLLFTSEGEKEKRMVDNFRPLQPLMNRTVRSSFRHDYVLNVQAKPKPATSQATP
Description: Inhibition of human recombinant full length carbonic hydrase 5B by stopped-flow assay
In assay [8] the target is Carbonic anhydrase 6 (Homo sapiens) (UniProt P23280).
Sequence of Carbonic anhydrase 6 (Homo sapiens) (P23280 whole entry): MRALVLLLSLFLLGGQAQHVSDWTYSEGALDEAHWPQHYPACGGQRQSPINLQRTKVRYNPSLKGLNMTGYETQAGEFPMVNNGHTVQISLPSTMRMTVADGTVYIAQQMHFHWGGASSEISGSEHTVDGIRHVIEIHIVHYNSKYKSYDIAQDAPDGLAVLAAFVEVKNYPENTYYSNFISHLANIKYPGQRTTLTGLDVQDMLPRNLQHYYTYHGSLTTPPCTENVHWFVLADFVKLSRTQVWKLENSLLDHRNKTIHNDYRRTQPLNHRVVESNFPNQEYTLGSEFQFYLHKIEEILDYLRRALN
Description: Inhibition of human recombinant full length carbonic hydrase 6 by stopped-flow assay
The target in assay [9] is Carbonic anhydrase 7 (Homo sapiens) (UniProt P43166).
Sequence of Carbonic anhydrase 7 (Homo sapiens) (P43166 whole entry): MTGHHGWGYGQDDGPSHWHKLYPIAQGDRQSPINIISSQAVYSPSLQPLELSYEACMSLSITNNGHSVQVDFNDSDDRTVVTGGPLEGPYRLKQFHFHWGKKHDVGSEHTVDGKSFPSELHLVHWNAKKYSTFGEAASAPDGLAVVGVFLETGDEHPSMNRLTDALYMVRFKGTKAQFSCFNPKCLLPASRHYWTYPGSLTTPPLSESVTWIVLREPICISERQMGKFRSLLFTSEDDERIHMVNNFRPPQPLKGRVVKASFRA
Description: Inhibition of human recombinant full length carbonic hydrase 7 by stopped-flow assay
In assay [10] the target is Carbonic anhydrase 9 (Homo sapiens) (UniProt Q16790).
Description: Inhibition of human catalytic domain carbonic hydrase 9 by stopped-flow assay
The target of assay [11] is Carbonic anhydrase 12 (Homo sapiens) (UniProt O43570).
Sequence of Carbonic anhydrase 12 (Homo sapiens) (O43570 whole entry): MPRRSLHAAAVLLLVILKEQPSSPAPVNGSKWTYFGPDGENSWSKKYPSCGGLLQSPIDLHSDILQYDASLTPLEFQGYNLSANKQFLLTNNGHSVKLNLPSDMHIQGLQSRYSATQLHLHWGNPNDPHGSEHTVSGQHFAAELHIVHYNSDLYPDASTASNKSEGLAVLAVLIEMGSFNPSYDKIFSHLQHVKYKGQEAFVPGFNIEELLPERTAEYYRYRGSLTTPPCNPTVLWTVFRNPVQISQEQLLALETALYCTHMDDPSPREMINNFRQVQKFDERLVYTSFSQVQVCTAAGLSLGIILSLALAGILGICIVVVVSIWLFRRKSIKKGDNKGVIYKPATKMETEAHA
Description: Inhibition of human catalytic domain carbonic hydrase 12 by stopped-flow assay
Assay [12] addresses Carbonic anhydrase 14 (Homo sapiens) (UniProt Q9ULX7).
Description: Inhibition of human recombinant full length carbonic hydrase 14 by stopped-flow assay

Sequence of Carbonic anhydrase 13 (Mus musculus) (Q9D6N1 whole entry, looked up): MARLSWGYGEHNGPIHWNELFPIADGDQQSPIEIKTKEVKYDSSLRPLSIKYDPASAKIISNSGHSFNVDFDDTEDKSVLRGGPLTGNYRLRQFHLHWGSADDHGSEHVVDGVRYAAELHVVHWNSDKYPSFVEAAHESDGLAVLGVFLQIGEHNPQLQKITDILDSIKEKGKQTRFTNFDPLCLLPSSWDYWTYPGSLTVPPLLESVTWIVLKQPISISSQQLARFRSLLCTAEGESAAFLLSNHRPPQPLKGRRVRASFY
Sequence of Carbonic anhydrase 4 (Homo sapiens) (P22748 whole entry): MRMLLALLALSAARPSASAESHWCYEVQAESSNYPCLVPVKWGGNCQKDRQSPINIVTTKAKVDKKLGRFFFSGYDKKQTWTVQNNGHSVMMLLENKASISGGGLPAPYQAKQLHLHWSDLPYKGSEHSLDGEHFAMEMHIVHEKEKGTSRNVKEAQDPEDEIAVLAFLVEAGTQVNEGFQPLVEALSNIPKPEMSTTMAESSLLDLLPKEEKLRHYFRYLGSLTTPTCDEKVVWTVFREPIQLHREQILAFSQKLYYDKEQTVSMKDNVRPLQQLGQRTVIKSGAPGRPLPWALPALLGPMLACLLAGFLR
Sequence of Carbonic anhydrase 14 (Homo sapiens) (Q9ULX7 whole entry): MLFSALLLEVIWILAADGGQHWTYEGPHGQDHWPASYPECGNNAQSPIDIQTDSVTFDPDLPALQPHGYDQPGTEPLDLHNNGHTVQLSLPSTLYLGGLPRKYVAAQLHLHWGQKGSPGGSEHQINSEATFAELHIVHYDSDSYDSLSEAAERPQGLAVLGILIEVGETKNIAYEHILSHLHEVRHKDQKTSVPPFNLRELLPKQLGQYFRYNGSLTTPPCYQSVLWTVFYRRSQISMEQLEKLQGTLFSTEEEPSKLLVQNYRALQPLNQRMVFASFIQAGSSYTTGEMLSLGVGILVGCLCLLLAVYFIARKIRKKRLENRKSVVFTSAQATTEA

One may read the Ki as a measure of affinity in units of concentration, obtained from inhibition or displacement. For `Oc1cc(F)cc(F)c1`, the Kinact in assay [1] came out at 84.2 µM; in [9], 163 µM; in [10], 9.4 µM; in assay [11], 70.2 µM; in assay [12], 10.6 µM. The inhibition constant Ki was found to be 38.8 µM in [2]; 33.9 µM in assay [3]; 0.71 µM in assay [4]; 10.7 µM in [5]; 65 µM in [6]; 98.4 µM in assay [7]. Further, in assay [8], the affinity corresponds to a Ki of 82.6 µM.

For `Oc1c(I)cc(Cl)c2cccnc12`, the Kinact amounted to 4.9 µM in assay [1]; 16 µM in assay [9]; 5.6 µM in assay [10]; 8.1 µM in [11]; 5 µM in assay [12]. In addition, the Ki amounted to 6.6 µM in [2]; 6.5 µM in assay [3]; 3.3 µM in assay [4]; 5.4 µM in assay [5]; 8.3 µM in assay [6]; 5.3 µM in [8].

As for `CC(=O)/N=c1/sc(S(N)(=O)=O)nn1C`, the Kinact in assay [1] was determined as 0.019 µM. In addition, the results for the Ki in assay [4], in assay [6] and in assay [8] were 710 µM, 0.065 µM and 0.01 µM, respectively.
